Reference: patent publication US10562891B2, “Quinazolinones as PARP14 inhibitors” (Ribon Therapeutics Inc., priority 2017, dated 2020)
pIC50: −log10 of the molar value. Structures can show the parent of a compound that is named as a salt.

These compounds were tested against catalytic domain of human PARP14 (Homo sapiens (Human), UniProt Q460N5) (assay: Enzymatic assay for inhibition of PARP14 (DELFIA, auto-modification with biotin-NAD)). Conditions: auto-modification of PARP14 by biotin-NAD, 50 nM PARP14, 3 μM biotin-NAD.
Assay type: biochemical
In short: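 His-TEV-tagged PARP14 catalytic domain (50 nM) preincubated with compound 30 min at 25 °C, then auto-modified with 3 μM biotin-NAD for 3 h at 25 °C in HEPES pH 8 buffer with DTT. IC50 from 4-parameter fit, rucaparib and DMSO as controls.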

Sequence of catalytic domain of human PARP14 (Q460N5 1611-1801): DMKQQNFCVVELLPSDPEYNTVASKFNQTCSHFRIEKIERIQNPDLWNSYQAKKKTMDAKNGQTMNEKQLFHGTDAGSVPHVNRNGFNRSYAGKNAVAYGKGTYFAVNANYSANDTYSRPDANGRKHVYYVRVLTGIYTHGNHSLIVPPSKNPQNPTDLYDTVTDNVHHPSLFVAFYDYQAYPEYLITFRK

pIC50	SMILES
> 6.00	CC(F)(F)CN1CCC(SCc2nc3cc(NC4CCCC4)ccc3c(=O)[nH]2)CC1 [Example 264, 7-(Cyclopentylamino)-2-(((1-(2,2-difluoropropyl)piperidin-4-yl)thio)methyl)quinazolin-4(3H)-one]
> 6.00	Cc1cccc2c(=O)[nH]c(CSC3CCC(O)CC3)nc12 (stereo not drawn) [Example 22, 2-(((4-Hydroxycyclohexyl)thio)methyl)-8-methylquinazolin-4(3H)-one]
> 6.00	CN1CC[C@@H](COc2cc(F)c3c(=O)[nH]c(CSC4CCOCC4)nc3c2)[C@H](F)C1 [Example 327a, 5-Fluoro-7-(((3S,4S)-3-fluoro-1-methylpiperidin-4-yl)methoxy)-2-(((tetrahydro-2H-pyran-4-yl)thio)methyl)quinazolin-4(3H)-one]
5.00 to 6.00	Cc1cccc2c(=O)[nH]c(CSC3CCN(C)CC3)nc12 [Example 14, 8-Methyl-2-(((1-methylpiperidin-4-yl)thio)methyl)quinazolin-4(3H)-one]
> 6.00	O=c1[nH]c(CS[C@H]2CC[C@H](O)CC2)nc2cc(OCC3CCOCC3)cc(F)c12 [Example 342]
> 6.00	O=c1[nH]c(CSC2CCNCC2)nc2cc(NCC3CC3(F)F)cc(F)c12 (stereo not drawn) [Example 262, 7-(((2,2-Difluorocyclopropyl)methyl)amino)-5-fluoro-2-((piperidin-4-ylthio)methyl)quinazolin-4(3H)-one]
> 6.00	O=c1[nH]c(CSC2CCN(CC(F)(F)F)CC2)nc2cc(NC3CCCC3)ccc12 [Example 254, 7-(Cyclopentylamino)-2-(((1-(2,2,2-trifluoroethyl)piperidin-4-yl)thio)methyl)quinazolin-4(3H)-one]
> 6.00	O=c1[nH]c(CSC2CCNCC2)nc2cc(NCC3CCC3)cc(F)c12 [Example 261, 7-((Cyclobutylmethyl)amino)-5-fluoro-2-((piperidin-4-ylthio)methyl)quinazolin-4(3H)-one]
> 6.00	O=c1[nH]c(CSC2CCOCC2)nc2cc(NCc3ccccc3)ccc12 [Example 119, 7-(Benzylamino)-2-(((tetrahydro-2H-pyran-4-yl)thio)methyl)quinazolin-4(3H)-one]
> 6.00	O=c1[nH]c(CSC2CCOCC2)nc2cc(NC3CC3)ccc12 [Example 124, 7-(Cyclopropylamino)-2-(((tetrahydro-2H-pyran-4-yl)thio)methyl)quinazolin-4(3H)-one]
5.00 to 6.00	O=c1[nH]c(CSC2CCOCC2)nc2cc(NC3CCN(Cc4ccccc4)CC3)ccc12 [Example 128, 7-((1-Benzylpiperidin-4-yl)amino)-2-(((tetrahydro-2H-pyran-4-yl)thio)methyl) quinazolin-4(3H)-one]
> 6.00	CCC(=O)N1CCC(COc2cc(F)c3c(=O)[nH]c(CSC4CCOCC4)nc3c2)CC1 [Example 398]
> 6.00	CO[C@H]1C[C@@H](Nc2cc3nc(CS[C@H]4CC[C@H](O)CC4)[nH]c(=O)c3c(F)c2F)C1 [Example 363]
< 5.00	N#Cc1ccc2c(=O)[nH]c(CSC3CCOCC3)nc2c1 [Example 1, 4-Oxo-2-(((tetrahydro-2H-pyran-4-yl)thio)methyl)-3,4-dihydroquinazoline-7-carbonitrile]
5.00 to 6.00	O=c1[nH]c(CSC2CCC(O)CC2)nc2cc(Nc3ccccc3)ccc12 (stereo not drawn) [Example 97, 2-(((4-Hydroxycyclohexyl)thio)methyl)-7-(phenylamino)quinazolin-4(3H)-one]
> 6.00	Cc1ccc(F)c2c(=O)[nH]c(CS[C@H]3CC[C@H](O)CC3)nc12 [Example 57, 5-Fluoro-2-(((trans-4-hydroxycyclohexyl)thio)methyl)-8-methylquinazolin-4(3H)-one]
> 6.00	O=c1[nH]c(CSC2CCS(=O)(=O)CC2)nc2cc(NC3CCCC3)cc(F)c12 [Example 270, 7-(Cyclopentylamino)-2-(((1,1-dioxidotetrahydro-2H-thiopyran-4-yl)thio)methyl)-5-fluoroquinazolin-4(3H)-one]

More lines, now with the values behind:

SMILES	pIC50
O=c1[nH]c(CSC2CCN(Cc3ccccn3)CC2)nc2cc(NC3CCCC3)cc(F)c12 [Example 281, 7-(Cyclopentylamino)-5-fluoro-2-(((1-(pyridin-2-ylmethyl)piperidin-4-yl)thio)methyl)quinazolin-4(3H)-one]	> 6.00
Cc1cccc2c(=O)[nH]c(CSC3CCCNC3)nc12 (stereo not drawn) [Example 48, 8-Methyl-2-((piperidin-3-ylthio)methyl)quinazolin-4(3H)-one Hydrochloride]	5.00 to 6.00
Cc1cccc2c(=O)[nH]c(CS[C@H]3CC[C@H](CN)CC3)nc12 [Example 66, 2-(((trans-4-(Aminomethyl)cyclohexyl)thio)methyl)-8-methylquinazolin-4(3H)-one Trifluoroacetate]	> 6.00
Cc1cccc2c(=O)[nH]c(CSC3CCN(C(=O)CCN(C)C)CC3)nc12 [Example 168, 2-(((1-(3-(Dimethylamino)propanoyl)piperidin-4-yl)thio)methyl)-8-methyl quinazolin-4(3H)-one]	5.00 to 6.00
Cc1cccc2c(=O)[nH]c(CSC3CCN(Cc4c[nH]c5ccncc45)CC3)nc12 [Example 151, 2-(((1-((1H-Pyrrolo[3,2-c]pyridin-3-yl)methyl)piperidin-4-yl)thio)methyl)-8-methylquinazolin-4(3H)-one bistrifluoroacetate]	> 6.00
O=c1[nH]c(CSC2CCOCC2)nc2cc(OCC3CCCO3)cc(F)c12 (stereo not drawn) [Example 320, 5-Fluoro-2-(((tetrahydro-2H-pyran-4-yl)thio)methyl)-7-((tetrahydrofuran-2-yl)methoxy)quinazolin-4(3H)-one]	> 6.00
Cc1c(F)ccc2c(=O)[nH]c(CSC3CCOCC3)nc12 [Example 33, 7-Fluoro-8-methyl-2-(((tetrahydro-2H-pyran-4-yl)thio)methyl)quinazolin-4(3H)-one]	> 6.00
O=c1[nH]c(CSC2CCOCC2)nc2cc(N[C@H]3C[C@@H](OC(F)(F)F)C3)c(F)c(F)c12 [Example 402]	> 6.00
O=c1[nH]c(CSC2CCOCC2)nc2cc(Oc3ccccc3)ccc12 [Example 29, 7-Phenoxy-2-(((tetrahydro-2H-pyran-4-yl)thio)methyl)quinazolin-4(3H)-one]	5.00 to 6.00
Cc1cccc2c(=O)[nH]c(CSC3CCCC(N)CC3)nc12 (stereo not drawn) [Example 53, 2-(((4-Aminocycloheptyl)thio)methyl)-8-methylquinazolin-4(3H)-one Trifluoroacetate]	> 6.00
CC(Nc1ccc2c(=O)[nH]c(CSC3CCOCC3)nc2c1)c1ccccc1 (stereo not drawn) [Example 120, 7-((1-Phenylethyl)amino)-2-(((tetrahydro-2H-pyran-4-yl)thio)methyl)quinazolin-4(3H)-one]	< 5.00
O=C(CO)N1CCC(SCc2nc3cc(OCC4CCC4)cc(F)c3c(=O)[nH]2)CC1 [Example 307, 7-(Cyclobutylmethoxy)-5-fluoro-2-(((1-(2-hydroxyacetyl)piperidin-4-yl)thio)methyl)quinazolin-4(3H)-one]	> 6.00
O=c1[nH]c(CSC2CCOCC2)nc2cc(NC3CCC3)ccc12 [Example 122, 7-(Cyclobutylamino)-2-(((tetrahydro-2H-pyran-4-yl)thio)methyl)quinazolin-4(3H)-one]	> 6.00
O=c1[nH]c(CSC2CCOCC2)nc2cc(OCC3CC(F)(F)C3)cc(F)c12 [Example 317, 7-((3,3-Difluorocyclobutyl)methoxy)-5-fluoro-2-(((tetrahydro-2H-pyran-4-yl)thio)methyl)quinazolin-4(3H)-one]	> 6.00
O=c1[nH]c(CS[C@H]2CNC[C@H]2F)nc2cc(NC3CCCC3)cc(F)c12 (relative stereo) [Example 223, 7-(Cyclopentylamino)-5-fluoro-2-(((cis-4-fluoropyrrolidin-3-yl)thio)methyl)quinazolin-4(3H)-one Trifluoroacetate]	> 6.00
O=c1[nH]c(CS[C@H]2CCNC[C@@H]2C(F)(F)F)nc2cc(NC3CCCC3)cc(F)c12 (relative stereo) [Example 222, 7-(Cyclopentylamino)-5-fluoro-2-(((trans-3-(trifluoromethyl)piperidin-4-yl)thio)methyl)quinazolin-4(3H)-one Hydrochloride]	> 6.00
O=c1[nH]c(CS[C@H]2CC[C@@H](O)CC2)nc2cc(Nc3cccnc3)ccc12 [Example 100, 2-(((cis-4-Hydroxycyclohexyl)thio)methyl)-7-(pyridin-3-ylamino)quinazolin-4(3H)-one]	> 6.00
O=c1[nH]c(CS[C@H]2CCN[C@H](C(F)(F)F)C2)nc2cc(NC3CCCC3)cc(F)c12 (relative stereo) [Example 227, 7-(Cyclopentylamino)-5-fluoro-2-(((trans-2-(trifluoromethyl)piperidin-4-yl)thio)methyl)quinazolin-4(3H)-one bis Trifluoroacetate]	5.00 to 6.00
O=c1[nH]c(CSC2CCOCC2)nc2cc(OCC3CCN(C4COC4)CC3)cc(F)c12 [Example 301, 5-Fluoro-7-((1-(oxetan-3-yl)piperidin-4-yl)methoxy)-2-(((tetrahydro-2H-pyran-4-yl)thio)methyl)quinazolin-4(3H)-one]	> 6.00
O=c1[nH]c(CSC2CCNCC2)nc2cc(OCC3CC3)ccc12 [Example 275, 7-(Cyclopropylmethoxy)-2-((piperidin-4-ylthio)methyl)quinazolin-4(3H)-one]	> 6.00
O=c1[nH]c(CSC2CCN(CC(F)(F)F)CC2)nc2cc(NC3CCCC3)cc(F)c12 [Example 263, 7-(Cyclopentylamino)-5-fluoro-2-(((1-(2,2,2-trifluoroethyl)piperidin-4-yl)thio)methyl)quinazolin-4(3H)-one]	> 6.00
O=c1[nH]c(CS[C@H]2CCNC[C@@H]2F)nc2cc(NC3CCCC3)cc(F)c12 (relative stereo) [Example 210, 7-(Cyclopentylamino)-5-fluoro-2-(((trans-3-fluoropiperidin-4-yl)thio)methyl)quinazolin-4(3H)-one Hydrochloride]	> 6.00
